From publication PMC8600407 (Soft matter, 2021)

Key:
[1] = hydrophobicity of the aromatic group; source not stated; cited from earlier work
[2] = system: alkaline phosphatase (ALP); conditions: fff derivatives 8 mM, ALP 1.0 or 0.1 UmL^-1

| Compound | logP [1] | enzymatic hydrogelation, times faster than pB as enzyme trigger [2] |
| --- | --- | --- |
| c1ccc(-c2ccccc2)cc1 [biphenyl] | 3.71 |  |
| O=C(O)c1ccc(-c2ccc(OP(=O)(O)O)cc2)cc1 [pBP, phosphohydroxybiphenyl-carboxylic acid] |  | 50–60 times |
| phosphohydroxynaphthoic acid [pNP] |  | 50–60 times |
